Measurements from ChEMBL document CHEMBL1909046, “DrugMatrix in vitro pharmacology data”.

How the values were obtained:
[1] = target: T1, Cholecystokinin receptor type A (Homo sapiens, UniProt P32238); type: cell membranes, Membrane; conditions: 1321-n1; further: in other assays of this panel Not Active means under 50% inhibition at 10 µM
T1 sequence (P32238 whole entry): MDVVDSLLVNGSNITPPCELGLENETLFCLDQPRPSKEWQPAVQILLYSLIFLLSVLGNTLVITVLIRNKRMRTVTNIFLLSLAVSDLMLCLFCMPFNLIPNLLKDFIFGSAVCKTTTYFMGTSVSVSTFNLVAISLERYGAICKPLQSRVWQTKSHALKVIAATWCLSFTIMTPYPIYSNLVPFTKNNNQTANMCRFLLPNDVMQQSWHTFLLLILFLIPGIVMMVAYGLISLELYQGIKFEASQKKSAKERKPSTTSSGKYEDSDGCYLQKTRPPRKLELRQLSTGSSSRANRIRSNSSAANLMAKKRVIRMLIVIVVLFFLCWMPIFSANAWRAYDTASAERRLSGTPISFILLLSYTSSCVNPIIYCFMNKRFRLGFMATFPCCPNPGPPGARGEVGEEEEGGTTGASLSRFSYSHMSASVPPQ

[2] = target: Epidermal growth factor receptor (Homo sapiens, UniProt P00533); experiment: DRUGMATRIX: Protein Tyrosine Kinase, EGF Receptor enzyme inhibition (substrate: Poly(Glu:Tyr)); type: cell-based, Insect cells; conditions: insect cells; Not Active = under 50% inhibition at 10 µM
Epidermal growth factor receptor, sequence (P00533 whole entry): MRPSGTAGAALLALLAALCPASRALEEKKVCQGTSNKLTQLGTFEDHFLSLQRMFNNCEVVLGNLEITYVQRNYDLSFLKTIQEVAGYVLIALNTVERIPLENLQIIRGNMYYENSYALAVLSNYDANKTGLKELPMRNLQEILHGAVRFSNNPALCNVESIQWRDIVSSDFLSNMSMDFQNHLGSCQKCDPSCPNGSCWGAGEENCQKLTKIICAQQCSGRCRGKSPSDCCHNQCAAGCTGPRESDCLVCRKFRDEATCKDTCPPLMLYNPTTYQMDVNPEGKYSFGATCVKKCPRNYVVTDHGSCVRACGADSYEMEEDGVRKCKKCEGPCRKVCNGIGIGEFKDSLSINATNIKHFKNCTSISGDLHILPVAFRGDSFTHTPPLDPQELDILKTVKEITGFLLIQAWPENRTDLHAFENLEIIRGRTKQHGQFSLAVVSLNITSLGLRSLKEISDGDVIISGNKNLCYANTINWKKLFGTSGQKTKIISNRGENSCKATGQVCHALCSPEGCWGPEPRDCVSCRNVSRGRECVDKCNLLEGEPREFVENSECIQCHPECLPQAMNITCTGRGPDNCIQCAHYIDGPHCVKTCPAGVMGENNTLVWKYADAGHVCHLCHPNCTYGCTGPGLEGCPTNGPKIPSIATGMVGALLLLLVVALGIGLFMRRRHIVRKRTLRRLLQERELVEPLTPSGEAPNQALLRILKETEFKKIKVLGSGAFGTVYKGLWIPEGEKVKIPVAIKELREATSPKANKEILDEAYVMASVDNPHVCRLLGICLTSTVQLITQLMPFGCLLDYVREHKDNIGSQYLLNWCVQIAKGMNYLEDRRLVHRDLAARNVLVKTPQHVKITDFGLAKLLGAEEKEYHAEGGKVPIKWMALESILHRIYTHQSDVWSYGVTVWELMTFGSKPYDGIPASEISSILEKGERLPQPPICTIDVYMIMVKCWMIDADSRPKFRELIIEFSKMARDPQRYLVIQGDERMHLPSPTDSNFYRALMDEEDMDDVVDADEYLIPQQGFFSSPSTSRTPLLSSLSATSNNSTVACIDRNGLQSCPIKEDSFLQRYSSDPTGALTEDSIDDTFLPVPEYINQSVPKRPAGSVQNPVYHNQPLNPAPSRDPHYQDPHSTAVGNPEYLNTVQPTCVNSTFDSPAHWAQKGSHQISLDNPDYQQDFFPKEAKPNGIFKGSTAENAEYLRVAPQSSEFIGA

Thromboxane-A synthase = target: T2, Thromboxane-A synthase (Homo sapiens, UniProt P24557); experiment: biochemical; type: tissue-based, Platelet; conditions: platelet;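 further: enzyme inhibition assay with PGH2 supplied as substrate; in other assays of this panel Not Active means under 50% inhibition at 10 µM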
T2 sequence (P24557 whole entry): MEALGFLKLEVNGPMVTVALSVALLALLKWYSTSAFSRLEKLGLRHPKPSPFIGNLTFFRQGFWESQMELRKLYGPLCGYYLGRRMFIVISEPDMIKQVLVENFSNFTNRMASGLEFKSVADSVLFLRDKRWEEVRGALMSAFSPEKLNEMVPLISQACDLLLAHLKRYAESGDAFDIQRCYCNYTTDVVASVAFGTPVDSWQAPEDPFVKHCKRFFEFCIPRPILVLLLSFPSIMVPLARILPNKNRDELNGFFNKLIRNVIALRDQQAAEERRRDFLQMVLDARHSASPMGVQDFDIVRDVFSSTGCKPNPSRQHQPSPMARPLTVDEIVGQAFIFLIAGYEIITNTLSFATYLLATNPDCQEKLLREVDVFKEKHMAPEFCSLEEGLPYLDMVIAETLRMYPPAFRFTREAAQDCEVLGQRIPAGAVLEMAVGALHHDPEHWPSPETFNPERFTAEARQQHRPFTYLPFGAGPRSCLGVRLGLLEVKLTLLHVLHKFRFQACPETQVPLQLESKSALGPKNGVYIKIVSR

[3] = target: Aldo-keto reductase family 1 member B1 (Rattus norvegicus, UniProt P07943); type: tissue-based, Lens of camera-type eye;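 further: inhibition of aldose reductase enzyme activity, measured with DL-glyceraldehyde as the substrate; in other assays of this panel Not Active means under 50% inhibition at 10 µM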
Adenosine receptor A2a = Adenosine receptor A2a (Homo sapiens, UniProt P29274); experiment: DRUGMATRIX: Adenosine A2A radioligand binding (ligand: […]); type: cell membranes, HEK293, Membrane; conditions: hek293; Not Active = under 50% inhibition at 10 µM
Adenosine receptor A2a, sequence (P29274 whole entry): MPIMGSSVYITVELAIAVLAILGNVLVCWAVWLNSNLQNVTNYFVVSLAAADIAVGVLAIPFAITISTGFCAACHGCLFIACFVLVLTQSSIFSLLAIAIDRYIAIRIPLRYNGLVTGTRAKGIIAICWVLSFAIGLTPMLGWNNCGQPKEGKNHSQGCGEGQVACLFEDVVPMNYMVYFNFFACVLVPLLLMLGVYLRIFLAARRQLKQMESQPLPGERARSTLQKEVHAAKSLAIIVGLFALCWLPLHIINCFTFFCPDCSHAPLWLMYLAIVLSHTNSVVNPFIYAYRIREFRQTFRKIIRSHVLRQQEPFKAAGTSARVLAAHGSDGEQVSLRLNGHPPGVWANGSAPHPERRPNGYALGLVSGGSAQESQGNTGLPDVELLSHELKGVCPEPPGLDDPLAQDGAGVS

Cytochrome P450 2E1 = Cytochrome P450 2E1 (Homo sapiens, UniProt P05181); conditions: bti-tn-5b1-4; further: in other assays of this panel Not Active means under 50% inhibition at 10 µM
Cytochrome P450 2E1, sequence (P05181 whole entry): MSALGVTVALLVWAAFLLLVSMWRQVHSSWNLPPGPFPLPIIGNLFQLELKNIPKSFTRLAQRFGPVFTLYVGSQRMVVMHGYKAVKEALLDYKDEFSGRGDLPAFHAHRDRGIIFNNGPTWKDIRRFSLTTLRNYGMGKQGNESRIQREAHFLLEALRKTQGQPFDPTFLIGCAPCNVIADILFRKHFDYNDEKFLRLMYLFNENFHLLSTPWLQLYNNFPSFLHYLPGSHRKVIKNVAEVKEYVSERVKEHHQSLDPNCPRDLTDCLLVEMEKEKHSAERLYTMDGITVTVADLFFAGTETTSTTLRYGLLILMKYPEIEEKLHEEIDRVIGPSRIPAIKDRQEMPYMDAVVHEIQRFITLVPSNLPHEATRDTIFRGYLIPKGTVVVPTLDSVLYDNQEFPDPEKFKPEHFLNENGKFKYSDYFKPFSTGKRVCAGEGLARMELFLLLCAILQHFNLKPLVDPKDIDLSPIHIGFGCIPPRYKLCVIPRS

[4] = DRUGMATRIX: Tumor Necrosis Factor (TNF), Non-Selective radioligand binding (ligand: [125I] TNF-alpha); type: cell membranes, Membrane; conditions: u-937; Not Active = under 50% inhibition at 10 µM
Calcitonin receptor = target: T3, Calcitonin receptor (Homo sapiens, UniProt P30988); type: cell membranes, Membrane; conditions: t47d; further: in other assays of this panel Not Active means under 50% inhibition at 10 µM
T3 sequence (P30988 whole entry): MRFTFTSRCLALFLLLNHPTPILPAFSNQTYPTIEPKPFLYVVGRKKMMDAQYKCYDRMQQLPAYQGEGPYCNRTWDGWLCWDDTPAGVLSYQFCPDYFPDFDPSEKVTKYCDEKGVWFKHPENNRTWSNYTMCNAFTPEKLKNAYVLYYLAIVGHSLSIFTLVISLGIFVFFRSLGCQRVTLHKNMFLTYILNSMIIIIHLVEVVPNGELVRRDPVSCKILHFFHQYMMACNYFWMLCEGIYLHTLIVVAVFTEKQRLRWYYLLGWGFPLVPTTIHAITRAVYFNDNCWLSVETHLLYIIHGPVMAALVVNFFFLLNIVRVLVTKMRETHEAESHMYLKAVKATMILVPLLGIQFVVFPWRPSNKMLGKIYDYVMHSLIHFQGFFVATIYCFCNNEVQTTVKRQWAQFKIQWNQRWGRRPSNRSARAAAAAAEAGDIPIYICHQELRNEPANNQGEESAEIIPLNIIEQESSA

Insulin receptor = Insulin receptor (Rattus norvegicus, UniProt P15127); type: cell membranes, Wistar, Liver, Membrane; further: in other assays of this panel Not Active means under 50% inhibition at 10 µM
Insulin receptor, sequence (P15127 27-759 limits assumed): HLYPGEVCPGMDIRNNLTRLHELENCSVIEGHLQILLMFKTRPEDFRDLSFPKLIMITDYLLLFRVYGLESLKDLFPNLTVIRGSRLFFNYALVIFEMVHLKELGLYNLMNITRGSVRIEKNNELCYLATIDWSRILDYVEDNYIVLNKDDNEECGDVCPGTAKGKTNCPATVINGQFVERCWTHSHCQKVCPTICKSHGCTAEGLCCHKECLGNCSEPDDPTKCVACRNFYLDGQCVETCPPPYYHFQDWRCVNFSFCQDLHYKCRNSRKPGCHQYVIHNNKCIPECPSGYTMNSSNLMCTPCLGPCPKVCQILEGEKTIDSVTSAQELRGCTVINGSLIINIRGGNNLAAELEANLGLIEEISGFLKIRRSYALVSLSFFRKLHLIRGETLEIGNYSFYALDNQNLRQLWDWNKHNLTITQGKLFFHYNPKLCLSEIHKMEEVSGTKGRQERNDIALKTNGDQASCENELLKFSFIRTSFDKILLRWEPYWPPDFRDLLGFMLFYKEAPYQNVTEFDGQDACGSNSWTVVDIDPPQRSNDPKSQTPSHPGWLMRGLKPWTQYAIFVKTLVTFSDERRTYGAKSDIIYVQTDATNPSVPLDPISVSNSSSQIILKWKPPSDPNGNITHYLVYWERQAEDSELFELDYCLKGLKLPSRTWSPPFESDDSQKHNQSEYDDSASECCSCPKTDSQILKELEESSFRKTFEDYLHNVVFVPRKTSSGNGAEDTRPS
Insulin receptor, sequence (P15127 764-1383 limits assumed): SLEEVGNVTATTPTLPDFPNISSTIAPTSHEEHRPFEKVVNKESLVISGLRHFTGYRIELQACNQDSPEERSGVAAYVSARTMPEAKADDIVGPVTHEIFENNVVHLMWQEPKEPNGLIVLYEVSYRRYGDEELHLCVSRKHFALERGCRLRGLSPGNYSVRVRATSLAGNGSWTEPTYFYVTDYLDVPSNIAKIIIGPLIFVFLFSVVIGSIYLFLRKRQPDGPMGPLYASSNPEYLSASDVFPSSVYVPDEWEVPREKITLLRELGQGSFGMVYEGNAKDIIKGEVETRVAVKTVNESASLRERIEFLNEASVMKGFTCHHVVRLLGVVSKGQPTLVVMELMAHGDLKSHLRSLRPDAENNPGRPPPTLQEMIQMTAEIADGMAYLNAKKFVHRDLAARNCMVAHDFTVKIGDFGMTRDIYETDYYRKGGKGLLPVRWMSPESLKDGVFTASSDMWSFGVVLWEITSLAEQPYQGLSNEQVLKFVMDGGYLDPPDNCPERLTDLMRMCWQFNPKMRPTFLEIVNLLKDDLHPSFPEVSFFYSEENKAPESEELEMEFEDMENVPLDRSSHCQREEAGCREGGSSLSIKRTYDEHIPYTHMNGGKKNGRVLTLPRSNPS

[5] = target: 5-hydroxytryptamine receptor 6 (Homo sapiens, UniProt P50406); type: cell membranes, HeLa, Membrane; further: in other assays of this panel Not Active means under 50% inhibition at 10 µM
5-hydroxytryptamine receptor 6, sequence (P50406 whole entry): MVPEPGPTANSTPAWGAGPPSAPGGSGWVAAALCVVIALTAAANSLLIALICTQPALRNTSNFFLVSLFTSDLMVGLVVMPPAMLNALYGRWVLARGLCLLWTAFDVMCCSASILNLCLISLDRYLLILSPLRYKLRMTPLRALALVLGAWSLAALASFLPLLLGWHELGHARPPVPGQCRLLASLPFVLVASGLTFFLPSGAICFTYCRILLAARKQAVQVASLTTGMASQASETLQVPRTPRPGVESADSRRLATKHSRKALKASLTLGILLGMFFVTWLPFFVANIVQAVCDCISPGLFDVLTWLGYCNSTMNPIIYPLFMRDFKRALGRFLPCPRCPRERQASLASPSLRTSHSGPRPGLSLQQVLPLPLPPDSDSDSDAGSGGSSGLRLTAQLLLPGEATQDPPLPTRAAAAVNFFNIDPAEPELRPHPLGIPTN

[6] = DRUGMATRIX: Sigma2 radioligand binding (ligand: [3H] Ifenprodil); type: cell membranes, Rattus norvegicus, Wistar, Brain, Membrane; conditions: Not Active = under 50% inhibition at 10 µM
[7] = target: T4, Amine oxidase [flavin-containing] A (Homo sapiens, UniProt P21397); experiment: DRUGMATRIX: Monoamine Oxidase MAO-A enzyme inhibition (substrate: Kynuramine); set-up: species or system BTI-TN-5B1-4; conditions: bti-tn-5b1-4; Not Active = under 50% inhibition at 10 µM
T4 sequence (P21397 whole entry): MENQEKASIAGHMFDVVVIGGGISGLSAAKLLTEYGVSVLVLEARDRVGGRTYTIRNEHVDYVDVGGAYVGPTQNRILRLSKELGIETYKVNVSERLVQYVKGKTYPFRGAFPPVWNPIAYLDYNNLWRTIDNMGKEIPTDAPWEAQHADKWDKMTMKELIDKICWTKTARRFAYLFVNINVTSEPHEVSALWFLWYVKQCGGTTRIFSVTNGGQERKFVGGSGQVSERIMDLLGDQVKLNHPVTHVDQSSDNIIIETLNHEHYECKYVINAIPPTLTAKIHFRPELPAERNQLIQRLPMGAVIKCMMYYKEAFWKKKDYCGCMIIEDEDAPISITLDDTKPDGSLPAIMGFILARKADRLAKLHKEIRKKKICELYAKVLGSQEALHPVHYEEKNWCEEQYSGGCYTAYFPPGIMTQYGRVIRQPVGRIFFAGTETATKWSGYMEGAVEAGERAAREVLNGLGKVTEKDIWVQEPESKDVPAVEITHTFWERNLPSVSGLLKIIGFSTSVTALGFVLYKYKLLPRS

[8] = DRUGMATRIX: Sodium/nucleoside co-transporter radioligand binding (ligand: nitrobenzylthioinosine); type: cell membranes, Cavia porcellus, Dunkin-Hartley, Cerebral cortex, Membrane; conditions: Not Active = under 50% inhibition at 10 µM
Cannabinoid receptor 1 = Cannabinoid receptor 1 (Homo sapiens, UniProt P21554); type: cell membranes, Membrane; conditions: chem-1; further: in other assays of this panel Not Active means under 50% inhibition at 10 µM
Cannabinoid receptor 1, sequence (P21554 whole entry): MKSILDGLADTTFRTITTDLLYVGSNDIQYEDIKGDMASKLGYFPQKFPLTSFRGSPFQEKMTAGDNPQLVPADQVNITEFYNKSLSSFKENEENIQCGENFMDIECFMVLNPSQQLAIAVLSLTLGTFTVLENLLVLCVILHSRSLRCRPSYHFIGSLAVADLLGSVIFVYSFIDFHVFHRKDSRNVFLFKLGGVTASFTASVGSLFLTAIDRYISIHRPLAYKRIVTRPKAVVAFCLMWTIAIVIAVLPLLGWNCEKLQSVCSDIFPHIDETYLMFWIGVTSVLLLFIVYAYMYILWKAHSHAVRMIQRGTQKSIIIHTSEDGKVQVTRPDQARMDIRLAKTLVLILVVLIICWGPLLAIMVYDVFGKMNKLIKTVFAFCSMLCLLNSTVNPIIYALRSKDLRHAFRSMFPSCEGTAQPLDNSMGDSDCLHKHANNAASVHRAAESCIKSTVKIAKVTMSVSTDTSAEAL

D(3) dopamine receptor = D(3) dopamine receptor (Homo sapiens, UniProt P35462); experiment: DRUGMATRIX: Dopamine D3 radioligand binding (ligand: [3H] Spiperone); type: cell membranes, CHO, Membrane; conditions: cho
D(3) dopamine receptor, sequence (P35462 whole entry): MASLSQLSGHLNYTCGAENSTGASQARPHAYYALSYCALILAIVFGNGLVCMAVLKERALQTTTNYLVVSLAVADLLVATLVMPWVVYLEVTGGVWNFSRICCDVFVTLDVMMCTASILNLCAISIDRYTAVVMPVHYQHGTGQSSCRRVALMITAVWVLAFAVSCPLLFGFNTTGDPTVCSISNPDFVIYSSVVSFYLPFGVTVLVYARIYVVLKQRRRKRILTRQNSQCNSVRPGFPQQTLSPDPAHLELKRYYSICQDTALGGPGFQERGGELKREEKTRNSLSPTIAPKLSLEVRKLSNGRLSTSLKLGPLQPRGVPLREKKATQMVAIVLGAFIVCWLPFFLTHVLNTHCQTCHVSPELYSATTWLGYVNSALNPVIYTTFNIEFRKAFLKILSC

SMILES	IC50 [1]	IC50 [2]	IC50 (Thromboxane-A synthase)	IC50 [3]	IC50 (Adenosine receptor A2a)	IC50 (Cytochrome P450 2E1)	Ki (Cytochrome P450 2E1)	IC50 [4]	Ki [4]	IC50 (Calcitonin receptor)	IC50 (Insulin receptor)	IC50 ([5]; hela)	IC50 [6]	Ki [6]	IC50 [7]	IC50 [8]	Ki [8]	IC50 (Cannabinoid receptor 1)	IC50 (D(3) dopamine receptor)	also measured
COC(=O)c1ccc(O)cc1 [METHYLPARABEN]	Not Active	Not Active	Not Active	Not Active	Not Active	Not Active	Not Active	Not Active	Not Active	Not Active	Not Active	Not Active	Not Active	Not Active	Not Active	Not Active	Not Active	Not Active	Not Active	–
C[C@](N)(Cc1ccc(O)cc1)C(=O)O [METYROSINE]	Not Active	Not Active	Not Active	Not Active	Not Active	Not Active	Not Active	Not Active	Not Active	Not Active	Not Active	Not Active	Not Active	Not Active	Not Active	Not Active	Not Active	Not Active	Not Active	–
Clc1ccc(C(c2ccccc2Cl)C(Cl)Cl)cc1 (centres undefined) [MITOTANE]	Not Active	Not Active	Not Active	Not Active	Not Active	Not Active	Not Active	Not Active	Not Active	Not Active	Not Active	–	Not Active	Not Active	Not Active	Not Active	Not Active	Not Active	Not Active	IC50 ([5]; read-out: IC50): 1.4 µM; Ki ([5]; read-out: Ki): 0.651 µM
COc1c(C)c2c(c(O)c1C/C=C(\C)CCC(=O)OCCN1CCOCC1)C(=O)OC2 [MYCOPHENOLATE MOFETIL]	Not Active	Not Active	Not Active	Not Active	Not Active	Not Active	Not Active	Not Active	Not Active	Not Active	Not Active	Not Active	Not Active	Not Active	Not Active	Not Active	Not Active	Not Active	Not Active	–
NNc1ccccc1 [PHENYLHYDRAZINE]	Not Active	Not Active	Not Active	Not Active	Not Active	Not Active	Not Active	Not Active	Not Active	Not Active	Not Active	Not Active	Not Active	Not Active	Not Active	Not Active	Not Active	Not Active	Not Active	–
CC(=O)[C@H]1CC[C@H]2[C@@H]3CCC4=CC(=O)CC[C@]4(C)[C@H]3CC[C@]12C [PROGESTERONE]	Not Active	Not Active	Not Active	Not Active	Not Active	Not Active	Not Active	Not Active	Not Active	Not Active	Not Active	Not Active	Not Active	Not Active	Not Active	–	–	Not Active	Not Active	IC50 ([8]; read-out: IC50): 19.6 µM; Ki ([8]; read-out: Ki): 6.7 µM
NC(=O)c1ncn([C@@H]2O[C@H](CO)[C@@H](O)[C@H]2O)n1 [RIBAVIRIN]	Not Active	Not Active	Not Active	Not Active	Not Active	Not Active	Not Active	Not Active	Not Active	Not Active	Not Active	Not Active	Not Active	Not Active	Not Active	Not Active	Not Active	Not Active	Not Active	–
